US9539252B2, “Piperazine-substituted benzothiophene derivatives as antipsychotic agents” (OTSUKA PHARMACEUTICAL CO., LTD., priority 2011, dated 2017)

Tests used:
physchem = settings: oil or lipid, thermodynamic from solid
Protocol: (§1) Each of the Example compounds was examined for the solubility in oil (sesame oil, benzyl benzoate).
(§2) For the specific gravity of an oil, the following values were applied. • sesame oil (specific gravity: 0.914-0.921) • benzyl benzoate (specific gravity: 1.123) • (Method)
(§3) Example compound is measured in a microtube and an oil (sesame oil, or, benzyl benzoate) in an amount to make the concentration 10 mg/0.1 ml is added. After stirring, the solubility is evaluated by visual observation. When the compound is not dissolved, the mixture is heated, and the solubility is evaluated after cooling.

[1] = Solubility in oil (sesame oil, benzyl benzoate), visual observation; settings: benzyl benzoate, oil or lipid, thermodynamic from solid
Protocol: as §1, §2, §3

SMILES | solubility (physchem) | solubility [1]
O=C(Cc1ccccc1)OCn1c(=O)ccc2ccc(OCCCCN3CCN(c4cccc5sccc45)CC3)cc21 [Example 26, phenylacetic acid 7-[4-(4-benzo[b]thiophen-4-ylpiperazin-1-yl)butoxy]-2-oxo-2H-quinolin-1-ylmethyl ester] | > 100 mg/mL | –
O=C(Cc1ccccc1)OCN1C(=O)CCc2ccc(OCCCCN3CCN(c4cccc5sccc45)CC3)cc21 [Example 25, phenylacetic acid 7-[4-(4-benzo[b]thiophen-4-ylpiperazin-1-yl)butoxy]-2-oxo-3,4-dihydro-2H-quinolin-1-ylmethyl ester] | > 100 mg/mL | –
COC(=O)CNC(=O)OCn1c(=O)ccc2ccc(OCCCCN3CCN(c4cccc5sccc45)CC3)cc21 [Example 64, {7-[4-(4-benzo[b]thiophen-4-ylpiperazin-1-yl)butoxy]-2-oxo-2H-quinolin-1-ylmethoxycarbonylamino}acetic acid methyl ester] | – | > 100 mg/mL
CCCC(=O)OCN1C(=O)CCc2ccc(OCCCCN3CCN(c4cccc5sccc45)CC3)cc21 [Example 19, butyric acid 7-[4-(4-benzo[b]thiophen-4-ylpiperazin-1-yl)butoxy]-2-oxo-3,4-dihydro-2H-quinolin-1-ylmethyl ester] | – | > 100 mg/mL
CCCCC(C)(C)C(=O)OCn1c(=O)ccc2ccc(OCCCCN3CCN(c4cccc5sccc45)CC3)cc21 [Example 103, 2,2-dimethylhexanoic acid 7-[4-(4-benzo[b]thiophen-4-ylpiperazin-1-yl)butoxy]-2-oxo-2H-quinolin-1-ylmethyl ester] | – | > 100 mg/mL
CC(=O)OCn1c(=O)ccc2ccc(OCCCCN3CCN(c4cccc5sccc45)CC3)cc21 [Example 61, acetic acid 7-[4-(4-benzo[b]thiophen-4-ylpiperazin-1-yl)butoxy]-2-oxo-2H-quinolin-1-ylmethyl ester] | – | > 100 mg/mL
O=C(OCN1C(=O)CCc2ccc(OCCCCN3CCN(c4cccc5sccc45)CC3)cc21)c1ccc2occc2c1 [Example 128, benzofuran-5-carboxylic acid 7-[4-(4-benzo[b]thiophen-4-ylpiperazin-1-yl)butoxy]-2-oxo-3,4-dihydro-2H-quinolin-1-ylmethyl ester] | – | > 100 mg/mL
CCCCCCCCCCCCCCCC(=O)OCN1C(=O)CCc2ccc(OCCCCN3CCN(c4cccc5sccc45)CC3)cc21 [Example 23, hexadecanoic acid 7-[4-(4-benzo[b]thiophen-4-ylpiperazin-1-yl)butoxy]-2-oxo-3,4-dihydro-2H-quinolin-1-ylmethyl ester] | – | > 100 mg/mL
CCCCCCCCCCCCCCCCCC(=O)OCN1C(=O)CCc2ccc(OCCCCN3CCN(c4cccc5sccc45)CC3)cc21 [Example 48, octadecanoic acid 7-[4-(4-benzo[b]thiophen-4-ylpiperazin-1-yl)butoxy]-2-oxo-3,4-dihydro-2H-quinolin-1-ylmethyl ester] | – | > 100 mg/mL
COC(=O)OCn1c(=O)ccc2ccc(OCCCCN3CCN(c4cccc5sccc45)CC3)cc21 [Example 163, carbonic acid 7-[4-(4-benzo[b]thiophen-4-ylpiperazin-1-yl)butoxy]-2-oxo-2H-quinolin-1-ylmethyl ester methyl ester] | – | > 100 mg/mL
CCCCCCCCCCCCCCCCCCCC(=O)OCn1c(=O)ccc2ccc(OCCCCN3CCN(c4cccc5sccc45)CC3)cc21 [Example 41, icosanoic acid 7-[4-(4-benzo[b]thiophen-4-ylpiperazin-1-yl)butoxy]-2-oxo-2H-quinolin-1-ylmethyl ester] | – | > 100 mg/mL
O=C(OCN1C(=O)CCc2ccc(OCCCCN3CCN(c4cccc5sccc45)CC3)cc21)N1CCCCC1 [Example 9, piperidine-1-carboxylic acid 7-[4-(4-benzo[b]thiophen-4-ylpiperazin-1-yl)butoxy]-2-oxo-3,4-dihydro-2H-quinolin-1-ylmethyl ester] | – | > 100 mg/mL
O=C(OCN1C(=O)CCc2ccc(OCCCCN3CCN(c4cccc5sccc45)CC3)cc21)N1CCOCC1 [Example 86, morpholine-4-carboxylic acid 7-[4-(4-benzo[b]thiophen-4-ylpiperazin-1-yl)butoxy]-2-oxo-3,4-dihydro-2H-quinolin-1-ylmethyl ester] | – | > 100 mg/mL
CCNC(=O)OCN1C(=O)CCc2ccc(OCCCCN3CCN(c4cccc5sccc45)CC3)cc21 [Example 51, N-ethylcarbamic acid 7-[4-(4-benzo[b]thiophen-4-ylpiperazin-1-yl)butoxy]-2-oxo-3,4-dihydro-2H-quinolin-1-ylmethyl ester] | – | > 100 mg/mL
CCCCCCCCCCCCCCCC(=O)OCn1c(=O)ccc2ccc(OCCCCN3CCN(c4cccc5sccc45)CC3)cc21 [Example 42, hexadecanoic acid 7-[4-(4-benzo[b]thiophen-4-ylpiperazin-1-yl)butoxy]-2-oxo-2H-quinolin-1-ylmethyl ester] | – | > 100 mg/mL
